Measured values published in PubChem BioAssay AID1963432 (Molecular Pharmacology Branch, DTP, NCI, 2024).

Test system: SYO-1 complex spheroid growth, percent test/control
Test: Anticancer human tumor SYO-1 cell line growth inhibition [Asc];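 note: compound exposure lasted 7 days after spheroids grew 3 days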;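 for viability, T/C: 100% = DMSO vehicle control viability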
Details: for IC50: curve of first compound; for viability, T/C: stronger effect = lower value
Summary of the method: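 Stromal components (HUVEC and hMSC) are co-assembled with the cancer cells into multicellular spheroids. Drugs are then added singly or paired, at concentrations falling by half-log increments from a clinically achievable maximum, capped at 10 microM without known Cmax.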

[1] = second compound 0.0316 µM, first compound 0.0316 µM
[2] = second compound 0.0316 µM, first compound 0.1 µM
[3] = second compound 0.0316 µM, first compound 0.316 µM
[4] = second compound 0.0316 µM, first compound 1 µM
[5] = second compound 0.1 µM, first compound 0.0316 µM
[6] = second compound 0.1 µM, first compound 0.1 µM
[7] = second compound 0.1 µM, first compound 0.316 µM
[8] = second compound 0.1 µM, first compound 1 µM
[9] = second compound 0.316 µM, first compound 0.0316 µM
[10] = second compound 0.316 µM, first compound 0.1 µM
[11] = second compound 0.316 µM, first compound 0.316 µM
[12] = second compound 0.316 µM, first compound 1 µM
[13] = second compound 1 µM, first compound 0.0316 µM
[14] = second compound 1 µM, first compound 0.1 µM
[15] = second compound 1 µM, first compound 0.316 µM
[16] = second compound 1 µM, first compound 1 µM
[17] = second compound 3.16 µM, first compound 0.0316 µM
[18] = second compound 3.16 µM, first compound 0.1 µM
[19] = second compound 3.16 µM, first compound 0.316 µM
[20] = second compound 3.16 µM, first compound 1 µM
[21] = second compound 10 µM, first compound 0.0316 µM
[22] = second compound 10 µM, first compound 0.1 µM
[23] = second compound 10 µM, first compound 0.316 µM
[24] = second compound 10 µM, first compound 1 µM

For C#Cc1c(F)ccc2cc(O)cc(-c3ncc4c(N5CC6CCC(C5)N6)nc(OCC56CCCN5CC(F)C6)nc4c3F)c12 (stereo unspecified) + Cc1c(S(C)(=O)=O)c(-c2cc(F)cc(N3CCN(c4ccc(NS(=O)(=O)c5ccc(NC(CCN6CCC(C(=O)OCCCP(=O)(O)O)CC6)CSc6ccccc6)c(S(=O)(=O)C(F)(F)F)c5)cc4)CC3)c2)c(-c2ccc(Cl)cc2)n1C(C)C, the IC50 (second compound 0.0316 µM) was > 10 µM, the IC50 (second compound 0.1 µM) was > 10 µM and the IC50 (second compound 0.316 µM) was > 10 µM. For the same compound, the IC50 (second compound 1 µM) was > 10 µM, the IC50 (second compound 3.16 µM) was > 10 µM and the IC50 (second compound 10 µM) was > 10 µM. The viability, T/C [1] was 93.6%, the viability, T/C [2] was 101% and the viability, T/C [3] was 89.2%. The viability, T/C [4] was 99.9%, the viability, T/C (second compound 0.0316 µM, first compound 3.16 µM) was 102% and the viability, T/C (second compound 0.0316 µM, first compound 10 µM) was 99.3%. The viability, T/C [5] was 92.4%, the viability, T/C [6] was 92.6% and the viability, T/C [7] was 90.6%. For the same compound, the viability, T/C [8] was 99.4%, the viability, T/C (second compound 0.1 µM, first compound 3.16 µM) was 101% and the viability, T/C (second compound 0.1 µM, first compound 10 µM) was 90.8%. The viability, T/C [9] was 93.8%, the viability, T/C [10] was 85.2% and the viability, T/C [11] was 91%. For the same compound, the viability, T/C [12] was 102%, the viability, T/C (second compound 0.316 µM, first compound 3.16 µM) was 99.5% and the viability, T/C (second compound 0.316 µM, first compound 10 µM) was 87%. It also gave a viability, T/C [13] of 92.7%, a viability, T/C [14] of 86.6% and a viability, T/C [15] of 88.2%. For the same compound, the viability, T/C [16] was 96.9%, the viability, T/C (second compound 1 µM, first compound 3.16 µM) was 96.1% and the viability, T/C (second compound 1 µM, first compound 10 µM) was 87%. For the same compound, the viability, T/C [17] was 83.9%, the viability, T/C [18] was 84.5% and the viability, T/C [19] was 88.8%. It also gave a viability, T/C [20] of 92.3%, a viability, T/C (second compound 3.16 µM, first compound 3.16 µM) of 85.8% and a viability, T/C (second compound 3.16 µM, first compound 10 µM) of 84.1%. For the same compound, the viability, T/C [21] was 78.2%, the viability, T/C [22] was 76.9% and the viability, T/C [23] was 81.1%. For the same compound, the viability, T/C [24] was 97.5%, the viability, T/C (second compound 10 µM, first compound 3.16 µM) was 75.8% and the viability, T/C (second compound 10 µM, first compound 10 µM) was 68.3%.
For CNC(C)C(=O)NC1CN(S(=O)(=O)c2cccc(S(=O)(=O)N3CCC4CCC(C(=O)NC(c5ccccc5)c5ccccc5)N4C(=O)C(NC(=O)C(C)NC)C3)c2)CCC2CCC(C(=O)NC(c3ccccc3)c3ccccc3)N2C1=O (stereo unspecified) + Cc1c(S(C)(=O)=O)c(-c2cc(F)cc(N3CCN(c4ccc(NS(=O)(=O)c5ccc(NC(CCN6CCC(C(=O)OCCCP(=O)(O)O)CC6)CSc6ccccc6)c(S(=O)(=O)C(F)(F)F)c5)cc4)CC3)c2)c(-c2ccc(Cl)cc2)n1C(C)C, the IC50 (second compound 0.0316 µM) was > 1 µM, the IC50 (second compound 0.1 µM) was > 1 µM and the IC50 (second compound 0.316 µM) was > 1 µM. For the same compound, the IC50 (second compound 1 µM) was > 1 µM, the IC50 (second compound 3.16 µM) was > 1 µM and the IC50 (second compound 10 µM) was > 1 µM. For the same compound, the viability, T/C (second compound 0.0316 µM, first compound 0.00316 µM) was 94.8%, the viability, T/C (second compound 0.0316 µM, first compound 0.01 µM) was 97.2% and the viability, T/C [1] was 95.6%. For the same compound, the viability, T/C [2] was 93.3%, the viability, T/C [3] was 98.4% and the viability, T/C [4] was 103%. For the same compound, the viability, T/C (second compound 0.1 µM, first compound 0.00316 µM) was 101%, the viability, T/C (second compound 0.1 µM, first compound 0.01 µM) was 99.9% and the viability, T/C [5] was 98.4%. For the same compound, the viability, T/C [6] was 97.9%, the viability, T/C [7] was 95.7% and the viability, T/C [8] was 92.8%. The viability, T/C (second compound 0.316 µM, first compound 0.00316 µM) was 96.4%, the viability, T/C (second compound 0.316 µM, first compound 0.01 µM) was 91.8% and the viability, T/C [9] was 89%. The viability, T/C [10] was 99.3%, the viability, T/C [11] was 96.6% and the viability, T/C [12] was 85.8%. It also gave a viability, T/C (second compound 1 µM, first compound 0.00316 µM) of 96.6%, a viability, T/C (second compound 1 µM, first compound 0.01 µM) of 90.8% and a viability, T/C [13] of 89.8%. The viability, T/C [14] was 90.5%, the viability, T/C [15] was 88.9% and the viability, T/C [16] was 101%. For the same compound, the viability, T/C (second compound 3.16 µM, first compound 0.00316 µM) was 98.5%, the viability, T/C (second compound 3.16 µM, first compound 0.01 µM) was 88.1% and the viability, T/C [17] was 84.5%. The viability, T/C [18] was 85.5%, the viability, T/C [19] was 89.9% and the viability, T/C [20] was 82%. For the same compound, the viability, T/C (second compound 10 µM, first compound 0.00316 µM) was 94.7%, the viability, T/C (second compound 10 µM, first compound 0.01 µM) was 83.9% and the viability, T/C [21] was 74.6%. It also gave a viability, T/C [22] of 72.5%, a viability, T/C [23] of 85.7% and a viability, T/C [24] of 71.1%.
For Cc1nc(N2CCC3(CC2)COC(C)C3N)c(CO)nc1Sc1ccnc(N)c1Cl (stereo unspecified) + Cc1c(S(C)(=O)=O)c(-c2cc(F)cc(N3CCN(c4ccc(NS(=O)(=O)c5ccc(NC(CCN6CCC(C(=O)OCCCP(=O)(O)O)CC6)CSc6ccccc6)c(S(=O)(=O)C(F)(F)F)c5)cc4)CC3)c2)c(-c2ccc(Cl)cc2)n1C(C)C, the IC50 (second compound 0.0316 µM) was > 3 µM, the IC50 (second compound 0.1 µM) was > 3 µM and the IC50 (second compound 0.316 µM) was > 3 µM. The IC50 (second compound 1 µM) was > 3 µM, the IC50 (second compound 3.16 µM) was > 3 µM and the IC50 (second compound 10 µM) was > 3 µM. For the same compound, the viability, T/C (second compound 0.0316 µM, first compound 0.00949 µM) was 93.6%, the viability, T/C (second compound 0.0316 µM, first compound 0.03 µM) was 99.6% and the viability, T/C (second compound 0.0316 µM, first compound 0.0949 µM) was 91.7%. For the same compound, the viability, T/C (second compound 0.0316 µM, first compound 0.3 µM) was 98.8%, the viability, T/C (second compound 0.0316 µM, first compound 0.949 µM) was 110% and the viability, T/C (second compound 0.0316 µM, first compound 3 µM) was 102%. It also gave a viability, T/C (second compound 0.1 µM, first compound 0.00949 µM) of 96%, a viability, T/C (second compound 0.1 µM, first compound 0.03 µM) of 94.8% and a viability, T/C (second compound 0.1 µM, first compound 0.0949 µM) of 97.3%. The viability, T/C (second compound 0.1 µM, first compound 0.3 µM) was 103%, the viability, T/C (second compound 0.1 µM, first compound 0.949 µM) was 100% and the viability, T/C (second compound 0.1 µM, first compound 3 µM) was 93.7%. The viability, T/C (second compound 0.316 µM, first compound 0.00949 µM) was 91.3%, the viability, T/C (second compound 0.316 µM, first compound 0.03 µM) was 88.2% and the viability, T/C (second compound 0.316 µM, first compound 0.0949 µM) was 98.9%. The viability, T/C (second compound 0.316 µM, first compound 0.3 µM) was 97.5%, the viability, T/C (second compound 0.316 µM, first compound 0.949 µM) was 103% and the viability, T/C (second compound 0.316 µM, first compound 3 µM) was 92.3%. For the same compound, the viability, T/C (second compound 1 µM, first compound 0.00949 µM) was 92.2%, the viability, T/C (second compound 1 µM, first compound 0.03 µM) was 95.7% and the viability, T/C (second compound 1 µM, first compound 0.0949 µM) was 93.2%. For the same compound, the viability, T/C (second compound 1 µM, first compound 0.3 µM) was 99.9%, the viability, T/C (second compound 1 µM, first compound 0.949 µM) was 98.7% and the viability, T/C (second compound 1 µM, first compound 3 µM) was 91%. The viability, T/C (second compound 3.16 µM, first compound 0.00949 µM) was 95.3%, the viability, T/C (second compound 3.16 µM, first compound 0.03 µM) was 91.2% and the viability, T/C (second compound 3.16 µM, first compound 0.0949 µM) was 89%. For the same compound, the viability, T/C (second compound 3.16 µM, first compound 0.3 µM) was 91.4%, the viability, T/C (second compound 3.16 µM, first compound 0.949 µM) was 95.5% and the viability, T/C (second compound 3.16 µM, first compound 3 µM) was 89.3%. For the same compound, the viability, T/C (second compound 10 µM, first compound 0.00949 µM) was 84%, the viability, T/C (second compound 10 µM, first compound 0.03 µM) was 82.8% and the viability, T/C (second compound 10 µM, first compound 0.0949 µM) was 94.8%. The viability, T/C (second compound 10 µM, first compound 0.3 µM) was 87.2%, the viability, T/C (second compound 10 µM, first compound 0.949 µM) was 95.8% and the viability, T/C (second compound 10 µM, first compound 3 µM) was 78.5%.
